Ten compounds from patent publication US20250206724A1, “SUBSTITUTED 3-AMINO INDAZOLE DERIVATIVES AS KINASE INHIBITORS” (NERVIANO MEDICAL SCIENCES S.R.L., priority 2022, published 2025) can be followed below.

Where a name gives a salt, the structure may show the parent alone. Read-outs that look alike come from different tables or passages of the source.

Assay [1] has as its target T1, CDK11A (Homo sapiens, UniProt Q9UQ88).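 Also: compound preincubated 30 min with CDK11A-p58, then probe added and polarization (mP) read 15 min later, 0% displacement is probe plus enzyme, 100% is probe alone.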
T1 sequence (Q9UQ88 346-783): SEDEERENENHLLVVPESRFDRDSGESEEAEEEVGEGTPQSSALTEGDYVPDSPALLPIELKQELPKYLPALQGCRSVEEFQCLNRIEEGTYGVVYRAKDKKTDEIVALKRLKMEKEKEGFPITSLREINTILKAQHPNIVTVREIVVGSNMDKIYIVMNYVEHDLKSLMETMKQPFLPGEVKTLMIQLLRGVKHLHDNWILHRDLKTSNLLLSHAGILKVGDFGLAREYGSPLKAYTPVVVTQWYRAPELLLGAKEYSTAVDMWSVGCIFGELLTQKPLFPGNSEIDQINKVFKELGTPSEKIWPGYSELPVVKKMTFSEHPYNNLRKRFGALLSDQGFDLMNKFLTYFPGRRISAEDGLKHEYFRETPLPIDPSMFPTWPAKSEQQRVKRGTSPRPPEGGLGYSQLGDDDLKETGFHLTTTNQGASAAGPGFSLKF
Conditions: displacement of SNS-032-Atto590 probe (0.002 μM) from CDK11A-p58 (0.032 uM), fluorescence polarization.

Assay [2] concerns NB-4. The assay can be described thus: Cytotoxicity assay (CellTiterGlo, 72 hours treatment), NB-4. Format: cell-based, Human. As to conditions: Homo sapiens, NB-4 acute myeloid leukemia cells, ATP determination, read-out: Cell line IC50 NB-4. The procedure:
(§1) Cell Lines and Cell Cultures
(§2) All cell lines were seeded at a density ranging from 2,400 to 8,000 cells/well in 384-well cell culture microplates and incubated at […] in a humidified 5% […] atmosphere 24 hours before treatment. Compound solutions were directly administered to the cells using the D300e digital dispenser (Tecan) to obtain scalar final concentrations ranging from 5 nM to 10 μM (duplicate wells for each point), with 80 uL final volume per well. The final DMSO concentration in test wells was adjusted to 0.1% (v/v); control wells were mock-treated and contained the same final concentration of DMSO.
(§3) Cell viability was determined after 72 hours treatment by ATP determination in each test well with a luciferase-based detection system (CellTiterGlo, Promega, Madison, WI, USA), following manufacturer's instructions. The intensity of emitted light was measured using an EnVision reader (PerkinElmer, Waltham, MA USA) and expressed as RLU. One to three independent experiments were performed for each cell line, as indicated.
(§4) Analysis of Antiproliferative Data
(§5) Cell growth inhibitory activity was evaluated comparing treated versus control data using the Assay Explorer software suite (Symix Technologies Inc.). IC50s values were calculated by sigmoidal fitting interpolation using the following quadriparametric Hill equation: […]
(§6) The Top, Bottom and Hill slope parameters were left free to assume any value, but only curves whose Hill slope had values between 0.5 and 4 were arbitrarily considered acceptable and used to calculate the average IC50s. Curves too steep (HillSlope≥4) or too slight (HillSlope≤0.5) were not included (Table C).

Assay [3] concerns EoL-1-cell. Description: Cytotoxicity assay (CellTiterGlo, 72 hours treatment), EoL-1. Format: cell-based, Human. Conditions: Homo sapiens, ATP determination, read-out: Cell line IC50 EoL-1-cell. The procedure: as §1, §2, §3, §4, §5, §6
Assay [4] relates to MOLM-13. The assay can be described thus: Cytotoxicity assay (CellTiterGlo, 72 hours treatment), MOLM-13. Format: cell-based, Human. As to conditions: Homo sapiens, MOLM-13 acute myeloid leukemia cells, ATP determination, read-out: Cell line IC50 MOLM-13. The method, then: as §1, §2, §3, §4, §5, §6
Setting [5] is: EOL1, 72 h, EoL-1 acute myeloid leukemia cells.

Regarding `N#Cc1ccc(Cl)c(-c2ccc3[nH]nc(NC(=O)[C@@H]4CCNC4)c3c2)c1` [compound 176, (3R)-N-[5-(2-Chloro-5-cyanophenyl)-1H-indazol-3-yl]pyrrolidine-3-carboxamide hydrochloride], the DC50 in assay [1] was 18 nM. Besides, the IC50 in assay [2] (NB-4, 72 h) came to 384 nM; in assay [3] (setting [5]), 425 nM; in assay [4] (MOLM-13, 72 h), 505 nM.
The compound `C[C@@H]1CC[C@@H](C(=O)Nc2n[nH]c3ccc(-c4cc(C#N)ccc4Cl)cc23)CN1` [compound 179, (3R,6R)-N-[5-(2-Chloro-5-cyanophenyl)-1H-indazol-3-yl]-6-methylpiperidine-3-carboxamide trifluoroacetate] displayed a DC50 in assay [1] of 21 nM. For the same compound, the IC50 in assay [2] (NB-4, 72 h) amounted to 335 nM; in assay [3] (setting [5]) it was 259 nM; in assay [4] (MOLM-13, 72 h), 414 nM.
In assay [1], `CC1(C)CCC(C(=O)Nc2n[nH]c3ccc(-c4cc(C#N)ccc4Cl)cc23)CN1` (stereo not shown) [compound 184, N-[5-(2-Chloro-5-cyanophenyl)-1H-indazol-3-yl]-6,6-dimethylpiperidine-3-carboxamide hydrochloride] gave a DC50 of 29 nM. Besides, the IC50 in assay [2] (NB-4, 72 h) was determined as 151 nM; in assay [3] (setting [5]), 160 nM; in assay [4] (MOLM-13, 72 h) it was 164 nM.
Taken in the same sequence, the figures for `N#Cc1ccc(Cl)c(-c2ccc3[nH]nc(NC(=O)C4CCC5(CCCC5)NC4)c3c2)c1` (stereo not shown) [compound 185, N-[5-(2-Chloro-5-cyanophenyl)-1H-indazol-3-yl]-6-azaspiro[4.5]decane-8-carboxamide hydrochloride] were 21 nM, 204 nM, 294 nM and 261 nM.
Taken in the same sequence, the figures for `N#Cc1ccc(Cl)c(-c2ccc3[nH]nc(NC(=O)C4CCC5(CCCCC5)NC4)c3c2)c1` (stereo not shown) [compound 186, N-[5-(2-Chloro-5-cyanophenyl)-1H-indazol-3-yl]-1-azaspiro[5.5]undecane-3-carboxamide hydrochloride] were 65 nM, 365 nM, 315 nM and 303 nM.
For `Cc1ccc(C#N)cc1-c1ccc2[nH]nc(NC(=O)[C@@H]3CCCNC3)c2c1` [cpd 24, (3R)-N-[5-(5-Cyano-2-methylphenyl)-1H-indazol-3-yl]piperidine-3-carboxamide hydrochloride] the same measures were 43 nM, 595 nM, 423 nM and 563 nM.
`N#Cc1ccc(F)c(-c2ccc3[nH]nc(NC(=O)[C@@H]4CCCNC4)c3c2)c1` [cpd 25, (3R)-N-[5-(5-Cyano-2-fluorophenyl)-1H-indazol-3-yl]piperidine-3-carboxamide hydrochloride] yielded a DC50 in assay [1] of 31 nM. Moreover, the IC50 in assay [2] (NB-4, 72 h) worked out at 1660 nM; in assay [3] (setting [5]), 1720 nM; in assay [4] (MOLM-13, 72 h), 2860 nM.
Take `O=C(Nc1n[nH]c2ccc(-c3cc([N+](=O)[O-])ccc3Cl)cc12)[C@@H]1CCCNC1` [cpd 26, (3R)-N-[5-(2-Chloro-5-nitrophenyl)-1H-indazol-3-yl]piperidine-3-carboxamide hydrochloride]: the DC50 in assay [1] turned out to be 23 nM. Besides, the IC50 was found to be 141 nM in assay [2]; 126 nM in assay [3] (EOL1, EoL-1 acute myeloid leukemia cells); 154 nM in assay [4].
For the compound `Cc1ccc(F)c(-c2ccc3[nH]nc(NC(=O)[C@@H]4CCCNC4)c3c2)c1` [cpd 32, (3R)-N-[5-(2-Fluoro-5-methylphenyl)-1H-indazol-3-yl]piperidine-3-carboxamide hydrochloride], in assay [1], the DC50 amounted to 23 nM. Besides, the IC50 came out at 2480 nM in assay [2] (NB-4, 72 h); 2040 nM in assay [3] (setting [5]); 1510 nM in assay [4] (MOLM-13, 72 h).
For the compound `CC(=O)c1ccc(Cl)c(-c2ccc3[nH]nc(NC(=O)[C@@H]4CCCNC4)c3c2)c1` [cpd 33, (3R)-N-[5-(5-Acetyl-2-chlorophenyl)-1H-indazol-3-yl]piperidine-3-carboxamide hydrochloride], the DC50 in assay [1] was found to be 19 nM. For the same compound, the IC50 stood at 1560 nM in assay [2] (NB-4, 72 h); 1380 nM in assay [3] (setting [5]); 1350 nM in assay [4] (MOLM-13, 72 h).
